# According to patent US10611847B2, “ABCG2 monoclonal antibody and uses thereof” (PEKING UNIVERSITY, priority 2016, dated 2020):
# Tests used:
# Type in all cases: cell-based
# [1] = tested on: A549/cis (Over-expressing ABCG2); test: Drug sensitization test (MTT); conditions: 72 hours
# Source text: (§1) MCF7 Flavo-resistant strain and A549 cisplatin-resistant strain (A549/cis) were used as the experimental cell line with high ABCG2 expression, and the corresponding non-resistant cells MCF7 and A549 with relatively low ABCG2 expression were used as control cell lines in the drug sensitization test. FTC is a specific inhibitor of ABCG2, so the cell group added with FTC was used as a positive control group; the cell group added with a corresponding volume of DMEM high glucose medium or RPMI-1640 medium was used as a negative control group. […] The ABCG2-PKU1, ABCG2-PKU1-1 and ABCG2-PKU2 antibodies prepared in Example 3, as well as mitoxantrone (MTX) and FTC were added. After 72 hours, MTT test was carried out and the absorbance was measured. […] The ratio of the IC50 of the drug-resistant cells to the IC50 of the original cells was calculated, which was the relative drug resistance. Breast cancer cell MCF7 and Flavopiridol (Flavo)-resistant strain MCF7/Flavo cells, lung cancer A549 cells and cisplatin (Cis)-resistant strain A549/Cis cells were divided into 11 groups in the growth inhibition analysis: […]
# A549 = test: Drug sensitization test (MTT); conditions: 72 hours
# Source text: as §1
# [2] = tested on: MCF 7/Flavo (Over-expressing ABCG2); test: Drug sensitization test (MTT); conditions: 72 hours
# Source text: as §1
# MCF 7 = test: Drug sensitization test (MTT); conditions: 72 hours
# Source text: as §1
# [3] = tested on: MCF7, MCF7/ADM, MCF7/FLV1000, MCF7/Mitoxantrone, A549, A549/cis, L02 and L02/Oct4 cells; test: Tumor cell growth inhibition analysis; conditions: agent alone; d1-d6 (FIG. 8)
# Description: (1) Tumor cell MCF7 and the drug-resistant strains MCF7/ADM, MCF7/FLV1000, MCF7/Mitoxantrone obtained and identified in Example 4, A549 and A549/cis, L02 and L02/Oct4 cells were seeded in a 96-well plate, 3000 cells/90 μl/well, 6 replicate wells, incubated at 37° C. overnight.
# (2) According to the following Tables 6-1 and 6-2, mitoxantrone, commercial ABCG2 antibody (BXP-21) and the three ABCG2 antibodies ABCG2-PKU1, ABCG2-PKU1-1 and ABCG2-PKU2 obtained in Example 3 were added to the plate. The plate was then incubated in a, 5% CO2 incubator at 37° C. 10 μl of DMSO was added to the well at d1, d2, d3, d4, d5, and d6, and the absorbance was measured using an ELISA instrument after 2 hours.
# (3) Inhibitory rate calculation: OD value of drug-treatment—blank OD value/OD value without drug-treatment—blank OD value, a growth inhibition curve was plotted.
Compound,Relative Drug Resistance ([1]; mitoxantrone + agent at 5 μM),Relative Drug Resistance (A549; mitoxantrone + agent at 5 μM),Relative Drug Resistance ([2]; mitoxantrone + agent at 5 μM),Relative Drug Resistance (MCF 7; mitoxantrone + agent at 5 μM),inhibition of tumor cell growth [3],Relative Drug Resistance ([1]; mitoxantrone alone),Relative Drug Resistance (A549; mitoxantrone alone),Relative Drug Resistance ([2]; mitoxantrone alone),Relative Drug Resistance (MCF 7; mitoxantrone alone)
COc1ccc2c3c([nH]c2c1)[C@H](C=C(C)C)N1C(=O)[C@@H]2CCCN2C(=O)[C@@H]1C3 [FTC],0.92,1.13,0.77,1.03,,,,,
"O=C1c2c(O)ccc(O)c2C(=O)c2c(NCCNCCO)ccc(NCCNCCO)c21 [Mitoxantrone, mitoxantrone]",,,,,could inhibit the growth,1.00,1.00,1.00,1.00
